From ChEMBL document CHEMBL4312022, “Design, synthesis, and biological evaluation of ligustrazine - betulin amino-acid/dipeptide derivatives as anti-tumor agents” (Eur J Med Chem, 2020) come the findings set out here.

Each structure is given as a SMILES string.

A word on the IC50: it is the midpoint of a concentration-inhibition curve.

Test [1] has as its system HeLa. Description: Antiproliferative activity against human HeLa cells assessed as reduction in cell viability after 72 hrs by MTT assay. The class given is functional, cell-based. (In general: Tetrazolium dyes change colour on reduction, which living cells bring about.)
Test [2] relates to HepG2. Description: Antiproliferative activity against human HepG2 cells assessed as reduction in cell viability after 72 hrs by MTT assay. The class given is functional, cell-based. The settings on record: HepG2, 72 h.
In test [3] the test system is BGC-823. Put plainly: Antiproliferative activity against human BGC823 cells assessed as reduction in cell viability after 72 hrs by MTT assay. The format is functional, cell-based. The settings on record: BGC-823, 72 h.
Test [4] deals with HT-29. Put plainly: Antiproliferative activity against human HT-29 cells assessed as reduction in cell viability after 72 hrs by MTT assay. The format is functional, cell-based. Particulars: HT-29, 72 h.
In test [5] the test system is MDCK. Description: Cytotoxicity against MDCK cells assessed as reduction in cell viability after 72 hrs by MTT assay. The format is cell-based. Particulars: Canis lupus familiaris.

On to `C=C(C)[C@@H]1CC[C@]2(COC(=O)c3nc(C)c(C)nc3C)CC[C@]3(C)[C@H](CC[C@@H]4[C@@]5(C)CC[C@H](OC(=O)[C@@H]6CCC(=O)N6)C(C)(C)[C@@H]5CC[C@]43C)[C@@H]12`, for which the IC50 in test [1] is 19.4 µM; in test [2], 16.5 µM; in test [3], 8.62 µM; in test [4], 15.3 µM; in test [5], 16.7 µM.
The matching figures for `C=C(C)[C@@H]1CC[C@]2(COC(=O)c3nc(C)c(C)nc3C)CC[C@]3(C)[C@H](CC[C@@H]4[C@@]5(C)CC[C@H](OC(=O)[C@@H](N)C(C)C)C(C)(C)[C@@H]5CC[C@]43C)[C@@H]12`: more than 20 µM, more than 20 µM, more than 20 µM, more than 20 µM and more than 20 µM.
Regarding `C=C(C)[C@@H]1CC[C@]2(COC(=O)c3nc(C)c(C)nc3C)CC[C@]3(C)[C@H](CC[C@@H]4[C@@]5(C)CC[C@H](OC(=O)CN(C)C(=O)[C@@H]6CCCN6C(C)=O)C(C)(C)[C@@H]5CC[C@]43C)[C@@H]12`, the IC50 in test [1] was 10.5 µM; in test [2] it was more than 20 µM; in test [3], 7.93 µM; in test [4], 9.71 µM; in test [5] it was more than 20 µM.
As for `C=C(C)[C@@H]1CC[C@]2(COC(=O)c3nc(C)c(C)nc3C)CC[C@]3(C)[C@H](CC[C@@H]4[C@@]5(C)CC[C@H](OC(=O)CNC(=O)CCNC(C)=O)C(C)(C)[C@@H]5CC[C@]43C)[C@@H]12`, the concentration for half-maximal inhibition (IC50) in test [1] was 6.72 µM; in test [2], more than 20 µM; in test [3], 7.62 µM; in test [4] it was more than 20 µM; in test [5], 15.8 µM.
For the compound `C=C(C)[C@@H]1CC[C@]2(COC(=O)c3nc(C)c(C)nc3C)CC[C@]3(C)[C@H](CC[C@@H]4[C@@]5(C)CC[C@H](OC(=O)[C@H](C)N)C(C)(C)[C@@H]5CC[C@]43C)[C@@H]12`, the IC50 in test [1] is 9.22 µM; in test [2] it was 10.1 µM; in test [3] it was 7.83 µM; in test [4], 9.29 µM; in test [5], 18.5 µM.
As for `C=C(C)[C@@H]1CC[C@]2(COC(=O)c3nc(C)c(C)nc3C)CC[C@]3(C)[C@H](CC[C@@H]4[C@@]5(C)CC[C@H](OC(=O)[C@@H](N)CC(C)C)C(C)(C)[C@@H]5CC[C@]43C)[C@@H]12`, the half-maximal inhibitory concentration (IC50) in test [1], in test [2], in test [3], in test [4] and in test [5] was more than 20 µM each time.
For `C=C(C)[C@@H]1CC[C@]2(COC(=O)c3nc(C)c(C)nc3C)CC[C@]3(C)[C@H](CC[C@@H]4[C@@]5(C)CC[C@H](OC(=O)CN(C)C(=O)CCNC(C)=O)C(C)(C)[C@@H]5CC[C@]43C)[C@@H]12`, the IC50 in test [1] is 4.13 µM; in test [2] it was 11 µM; in test [3], 6.94 µM; in test [4], 12.5 µM; in test [5], 18.6 µM.
The matching figures for `C=C(C)[C@@H]1CC[C@]2(COC(=O)c3nc(C)c(C)nc3C)CC[C@]3(C)[C@H](CC[C@@H]4[C@@]5(C)CC[C@H](OC(=O)[C@@H]6CCCN6C(=O)[C@@H]6CCCN6C(C)=O)C(C)(C)[C@@H]5CC[C@]43C)[C@@H]12`: 11.1 µM, more than 20 µM, more than 20 µM, more than 20 µM and more than 20 µM.
Regarding `C=C(C)[C@@H]1CC[C@]2(COC(=O)c3nc(C)c(C)nc3C)CC[C@]3(C)[C@H](CC[C@@H]4[C@@]5(C)CC[C@H](OC(=O)[C@@H](N)Cc6ccccc6)C(C)(C)[C@@H]5CC[C@]43C)[C@@H]12`, the IC50 in test [1], in test [2], in test [3], in test [4] and in test [5] was more than 20 µM in each case.
In the case of `C=C(C)[C@@H]1CC[C@]2(CO)CC[C@]3(C)[C@H](CC[C@@H]4[C@@]5(C)CC[C@H](O)C(C)(C)[C@@H]5CC[C@]43C)[C@@H]12` [BETULIN], the IC50 is 12.2 µM in test [1]; more than 20 µM in test [2]; more than 20 µM in test [3]; more than 20 µM in test [4]; more than 20 µM in test [5].
Turning to `C=C(C)[C@@H]1CC[C@]2(COC(=O)c3nc(C)c(C)nc3C)CC[C@]3(C)[C@H](CC[C@@H]4[C@@]5(C)CC[C@H](OC(=O)CNC(=O)[C@@H]6CCCN6C(C)=O)C(C)(C)[C@@H]5CC[C@]43C)[C@@H]12`, the IC50 in test [1] was 10.1 µM; in test [2] it was more than 20 µM; in test [3], 8.15 µM; in test [4] it was 12.3 µM; in test [5], 19.8 µM.
The matching figures for `C=C(C)[C@@H]1CC[C@]2(COC(=O)c3nc(C)c(C)nc3C)CC[C@]3(C)[C@H](CC[C@@H]4[C@@]5(C)CC[C@H](OC(=O)CNC(=O)CNC(C)=O)C(C)(C)[C@@H]5CC[C@]43C)[C@@H]12`: more than 20 µM, more than 20 µM, 7.85 µM, 11.2 µM and 14.5 µM.
The matching figures for `C=C(C)[C@@H]1CC[C@]2(COC(=O)c3nc(C)c(C)nc3C)CC[C@]3(C)[C@H](CC[C@@H]4[C@@]5(C)CC[C@H](OC(=O)CN(C)C(=O)CNC(C)=O)C(C)(C)[C@@H]5CC[C@]43C)[C@@H]12`: 7.96 µM, more than 20 µM, 10.3 µM, more than 20 µM and more than 20 µM.
The matching figures for `C=C(C)[C@@H]1CC[C@]2(COC(=O)c3nc(C)c(C)nc3C)CC[C@]3(C)[C@H](CC[C@@H]4[C@@]5(C)CC[C@H](OC(=O)[C@@H]6CCCN6)C(C)(C)[C@@H]5CC[C@]43C)[C@@H]12`: 17.2 µM, 19.6 µM, 10.4 µM, 15 µM and 17.6 µM.
Take `C=C(C)[C@@H]1CC[C@]2(COC(=O)c3nc(C)c(C)nc3C)CC[C@]3(C)[C@H](CC[C@@H]4[C@@]5(C)CC[C@H](OC(=O)[C@@H]6CCCN6C(=O)CNC(C)=O)C(C)(C)[C@@H]5CC[C@]43C)[C@@H]12`: the 50% inhibitory concentration (IC50) in test [1] is 17.9 µM; in test [2], 18.4 µM; in test [3], 18.9 µM; in test [4] it was 14.7 µM; in test [5], 18.9 µM.
Turning to `C=C(C)[C@@H]1CC[C@]2(COC(=O)c3nc(C)c(C)nc3C)CC[C@]3(C)[C@H](CC[C@@H]4[C@@]5(C)CC[C@H](OC(=O)CNC)C(C)(C)[C@@H]5CC[C@]43C)[C@@H]12`, the 50% inhibitory concentration (IC50) in test [1] was 7.88 µM; in test [2] it was 5.93 µM; in test [3], 8.23 µM; in test [4] it was 7.92 µM; in test [5], 14.6 µM.
The matching figures for `C=C(C)[C@@H]1CC[C@]2(COC(=O)c3nc(C)c(C)nc3C)CC[C@]3(C)[C@H](CC[C@@H]4[C@@]5(C)CC[C@H](OC(=O)[C@@H](N)[C@@H](C)CC)C(C)(C)[C@@H]5CC[C@]43C)[C@@H]12`: more than 20 µM, more than 20 µM, more than 20 µM, 16.6 µM and more than 20 µM.
The matching figures for `C=C(C)[C@@H]1CC[C@]2(COC(=O)c3nc(C)c(C)nc3C)CC[C@]3(C)[C@H](CC[C@@H]4[C@@]5(C)CC[C@H](O)C(C)(C)[C@@H]5CC[C@]43C)[C@@H]12`: 18.5 µM, 13.6 µM, 15 µM, 16.3 µM and more than 20 µM.
For `C=C(C)[C@@H]1CC[C@]2(COC(=O)c3nc(C)c(C)nc3C)CC[C@]3(C)[C@H](CC[C@@H]4[C@@]5(C)CC[C@H](OC(=O)[C@@H]6CCCN6C(=O)CCNC(C)=O)C(C)(C)[C@@H]5CC[C@]43C)[C@@H]12`, the IC50 is 10.4 µM in test [1]; more than 20 µM in test [2]; more than 20 µM in test [3]; more than 20 µM in test [4]; more than 20 µM in test [5].
